Reference: US20110217241A1, “CONJUGATES OF 19F MR IMAGING TRACERS FOR USE IN MULTI-CHROMIC MRI IMAGING” (University of Maryland, Baltimore, priority 2008, published 2011)

Assays:
[1] = 19F resonance frequency (chemical shift) with different metal ions; type: physicochemical; conditions: FIG. 6
Source text: In FIG. 6, the darker bars indicate paramagnetic ion complexes and the lighter bars indicate diamagnetic complexes. As shown in the graph of FIG. 6, the different metal ions led to different ^19F resonance frequencies, ranging from δ(^19FIT-Bi^3+)=−71.17 ppm to δ(^19FIT-Tb^3+)=−63.32 ppm. In each case, there was a single ^19F signal.

[2] = 19F relaxation times (T1, T2) under different solution conditions; type: physicochemical; conditions: for Relaxation Times T1 / Relaxation Times T2 / T1 percentage relative to T1 under Condition 1 / T2 percentage relative to T2 under Condition 1: pH 7, 50 mM; for Relaxation Times T1 / Relaxation Times T2 / pH dependency of 19F relaxation times T1 and T2: 11.7 Tesla; for pH dependency of 19F relaxation times T1 and T2: pH 6, 7 & 8
Protocol: The ^19F T1 and T2 were determined under different solution conditions for the paramagnetic ^19FIT-Gd^3+ and for the diamagnetic ^19FIT-Y^3+ from the above example (and shown in FIG. 6). The conditions and results are summarized below in Table 1. The percentage numbers for Conditions 2-5 were calculated relative to T1 or T2 under Condition 1. […] For example, the weakly paramagnetic O2 had little effect on the ^19F T1 and T2 of ^19FIT-Gd^3+.
19F T1 and T2 were also determined for ^19FIT-Gd^3+ and ^19FIT-Y^3+ at different pH values (pH 6 7 & 8). […] The NMR field strength for the testing was 11.7 Tesla.

[3] = Condition 1: PBS buffer saturated with N2, 25° C.
[4] = Condition 2: PBS buffer saturated with O2, 25° C.
[5] = Condition 3: PBS buffer saturated with N2, 45° C.
[6] = Condition 4: Human sera with 10% D2O saturated with N2, 25° C.
[7] = Condition 5: 10% w/v bovine serum albumin in PBS buffer saturated with N2, 25° C.

SMILES	19F resonance frequency δ [1] [ppm]	Relaxation Times T1 [2, 3] [ms]	Relaxation Times T2 [2, 3] [ms]	T1 percentage relative to T1 under Condition 1 [2, 4]	T2 percentage relative to T2 under Condition 1 [2, 4]	Relaxation Times T1 [2, 4] [ms]	Relaxation Times T2 [2, 4] [ms]	T1 percentage relative to T1 under Condition 1 [2, 5]	T2 percentage relative to T2 under Condition 1 [2, 5]	Relaxation Times T1 [2, 5] [ms]	Relaxation Times T2 [2, 5] [ms]	T1 percentage relative to T1 under Condition 1 [2, 6]	T2 percentage relative to T2 under Condition 1 [2, 6]	Relaxation Times T1 [2, 6] [ms]	Relaxation Times T2 [2, 6] [ms]	T1 percentage relative to T1 under Condition 1 [2, 7]	T2 percentage relative to T2 under Condition 1 [2, 7]	Relaxation Times T1 [2, 7] [ms]	Relaxation Times T2 [2, 7] [ms]	pH dependency of 19F relaxation times T1 and T2 [2]	further results
O=C([O-])CN1CCN(CC(=O)[O-])CCN(CC(=O)NCCOCCOCCOCCOC(C(F)(F)F)(C(F)(F)F)C(F)(F)F)CCN(CC(=O)[O-])CC1.[Bi+3] [^19FIT-Bi^3+]	−71.17	–	–	–	–	–	–	–	–	–	–	–	–	–	–	–	–	–	–	–	–
O=C([O-])CN1CCN(CC(=O)[O-])CCN(CC(=O)NCCOCCOCCOCCOC(C(F)(F)F)(C(F)(F)F)C(F)(F)F)CCN(CC(=O)[O-])CC1.[Gd+3] [^19FIT-Gd^3+]	–	4.24	1.66	(−0.7%)	(−6.0%)	4.27	1.56	(−6.4%)	(−26.5%)	3.97	1.22	(−0.7%)	(−48.2%)	4.27	0.86	(6.6%)	(−66.9%)	4.52	0.55	neither complex showed significant pH dependency	effect of weakly paramagnetic O2 on 19F T1 and T2 ([2]; Condition 2 vs Condition 1): little effect
O=C([O-])CN1CCN(CC(=O)[O-])CCN(CC(=O)NCCOCCOCCOCCOC(C(F)(F)F)(C(F)(F)F)C(F)(F)F)CCN(CC(=O)[O-])CC1.[Tb+3] [^19FIT-Tb^3+]	−63.32	–	–	–	–	–	–	–	–	–	–	–	–	–	–	–	–	–	–	–	–
O=C([O-])CN1CCN(CC(=O)[O-])CCN(CC(=O)NCCOCCOCCOCCOC(C(F)(F)F)(C(F)(F)F)C(F)(F)F)CCN(CC(=O)[O-])CC1.[Y+3] [^19FIT-Y^3+]	–	1498	1057	(−28.3%)	(−37.1%)	1074	665	(42.4%)	(43.0%)	2133	1511	(−19.2%)	(−79.8%)	1211	214	(−19.9%)	(−86.8%)	1200	139	neither complex showed significant pH dependency	–
